# Assays:
# [1] = system: Early embryos of the heterologous inbred SPR2 mouse; test: ES cell establishment from electroporated early embryos (Treatment Example 4); type: cell-based, Mus spretus; settings: SPR2 early embryos cultured in Y-27632 medium, then electroporated
# Experimental: (§1) 1. Up to 3 hours before TAKE, Y-27632-added mWM medium (Y-27632 final concentration 10 μM, an example of the “temporary treatment medium” of this example), Y-27632-free mWM medium (an example of “normal medium” of this example) were dropped into 35 mm Petri dishes by 5 drops, respectively, to prepare drops covered with paraffin oil.
# (§2) 2. Two-cell stage embryos were collected from the drops or thawed, placed in Y-27632-added mWM medium, and cultured for about 30 minutes to 1 hour (temporary treatment).
# (§3) 3. After that, TAKE was performed.
# (§4) 4. After TAKE, the embryos were placed in Y-27632-added mWM medium and cultured for about 30 minutes to 1 hour (temporary treatment). Then, the embryos were placed in Y-27632-free mWM medium and cultured at 37° C. under 5% CO2 and 5% O2 conditions until transplantation.
# (§5) 5. Then, if necessary, the culture was continued in the Y-27632-free mWM medium to establish ES cells.
# (§6) When Mus caroli ES cells were knocked out of the Tyr gene by genome editing and a part of them was analyzed, it was shown that NHEJ occurred and heterologous mouse ES cells were established.
# [2] = system: NOD-scid Bbox1, IL2RG double knock-out mice; test: Passage efficiency of mice prepared by using Y-27632 (Treatment Example 20); type: in vivo, mouse
# Text: The double knock-out mice of IL2RG gene and the Bbox1 gene by using the NOD-scid mice in the above-mentioned treatment example 14 were mated with each other, and it was examined whether or not the newborn mouse was affected by Y-27632.
# [3] = system: Pronuclear stage embryo of C57BL/6J; test: Flox mouse production by the 2STEP method, Mecp2 / Drb1 (Treatment Example 2); type: cell-based
# Experimental: 1. Up to 3 hours before TAKE, Y-27632-added mWM medium (Y-27632 final concentration 10 μM, an example of the “temporary treatment medium” of this example), Y-27632-free mWM medium (an example of “normal medium” of this example), 5 drops of each medium were dropped on 35 mm Petri dish, and then covered with paraffin oil. For the drops, twice the number of the drops plates to be performed TAKE were prepared.
# 2. Pronuclear stage embryos were collected, placed in Y-27632-added mWM medium, and cultured for about 30 minutes to 1 hour (temporary treatment).
# 3. After that, the first TAKE was performed.
# 3a. In the case of frozen eggs, after the first TAKE, they were placed in a Y-27632-added mWM medium and cultured for about 30 minutes to 1 hour (temporary treatment).
# 3b. In the case of unfrozen eggs, after the first TAKE, they were placed in a Y-27632-added mWM medium and cultured under 37° C. and 5% CO2 (5% O2) conditions until the next day (temporary treatment).
# 4. After the temporary treatment, the embryos were placed in Y-27632-free mWM medium and cultured at 37° C. and 5% CO2 (5% O2) conditions until the next day.
# 5. Both were confirmed at the next day, and the embryos at the 2-cell stage were subjected to the second TAKE.
# 6. After the second TAKE, the embryos were placed in Y-27632-added mWM medium and cultured for about 30 minutes to 1 hour (temporary treatment).
# 7. Then, they were transferred to Y-27632-free mWM medium. If necessary, culture was continued or embryo transfer was performed.
# Therefore, in this preparation example, the temporary treatment medium containing Y-27632 was temporarily treated before and after the electroporation (EP) of the 2STEP method. Pronuclear stage embryo of C57BL/6J (CLEA Japan, Inc.) were used as an in-vitro-culture and female MCH (CLEA Japan, Inc.) were used as recipient.
# The present inventors conducted an experiment to obtain Flox mice by the 2STEP method targeting the Mecp2 gene.
# In Table 2, “m” indicates treatment with the normal medium, and “Y” indicates temporary treatment with the temporary treatment medium. […] That is, “m->m” uses the normal medium in the both step, “m->Y” was temporarily treated with the temporary treatment medium only in the first electroporation step, and “Y->Y” was temporarily treated with the temporary treatment medium in both steps.
# In each column, the proportions that the loxP sequence is inserted only on the left side by the first electroporation step (Left loxP), the loxP sequence is inserted only on the right side by the second electroporation step (Right loxP), and both loxP sequences inserted by both steps (2loxP) were respectively shown.
# [4] = system: Early embryos of the heterologous mouse Mus caroli; test: ES cell establishment from electroporated early embryos (Treatment Example 4); type: cell-based; settings: Mus caroli early embryos cultured in Y-27632 medium, then electroporated
# Experimental: as §1, §2, §3, §4, §5, §6
# [5] = system: inbred mouse B6J embryos; test: Generation of Flox inbred mice (individuals) by one-step method, high concentration ssODN (Treatment Example 11); type: cell-based; settings: floxed MK2 1STEP (HIGH CONCENTRATION)
# Experimental: Furthermore, in the same manner, the individual production is performed in an inbred mouse B6J strain by an electroporation method (1STEP method) by using a high concentration ssODN.
# [6] = system: unfrozen pronuclear stage embryo (1 cell) of the inbred rat F344; test: Genome-edited individuals by unfrozen 1-cell TAKE of F344 (Treatment Example 16); type: cell-based; settings: F344 unfrozen 1 cell; for NUMBER OF NEWBORNS: 2× gRNA, 14 pulses, 20% reduction rate; for KO rate (Large deletion) (%): KO individuals / newborns analyzed
# Text: Next, in the same manner as in Treatment Example 1 according to Example 1, a knock-out by the electroporation method was also produced in an unfrozen pronuclear stage embryo (1 cell) of the inbred rat F344. The conditions at this time were that the gRNA concentration was twice the specified amount, the pulse was 14 times, and the reduction rate was 20%.
# [7] = system: NOD-scid mouse embryos; test: Bbox1 and IL2rg DKO screening in NOD-scid mice (Treatment Example 14); type: cell-based
# Experimental: Then, in the same manner as in Treatment Example 7 of Example 1, in the NOD-scid strain, which is another strain of a severe combined immunodeficiency mouse, genome editing of multiple genes was performed, and individuals were produced. Here, individuals in which both the mBBOX1 and mIL2RG genes of NOD-scid mice were knocked out were prepared by the same treatment method as the above-mentioned treatment example used for BALB/c nude.
# [8] = NOG-Bbox1, generation F1, 3 pregnancies
# [9] = NOG-Bbox1, generation F2, 8 pregnancies
# [10] = group Y → Y, 2STEP, Mecp2-Flox, blastocysts, listed as Y
# [11] = group m → Y, 2STEP, target Mecp2-Flox
# [12] = NOD-scid F0, Bbox1 and IL2rg, listed as temporary treatment medium
structure (smiles),measurement,setting,value
"C[C@@H](N)[C@H]1CC[C@H](C(=O)Nc2ccncc2)CC1 [Y-27632, trans-4-[(1R)-1-Aminoethyl]-N-4-pyrid inylcyclohexanecarboxamide]",ES cells established,[1],at a high rate
same,ave. litter size,"[2]; NOG-Bbox1, generation F1",(7.7/preg.)
same,Total pups,[2]; [8],23
same,female pups,[2]; [8],13
same,male pups,[2]; [8],10
same,ave. litter size,"[2]; NOG-Bbox1, generation F2",(6.8/preg.)
same,Total pups,[2]; [9],54
same,female pups,[2]; [9],25
same,male pups,[2]; [9],29
same,effect on mouse passage and phenotype,[2]; offspring of mice produced with Y-27632 treated embryos,did not affect mouse passage and phenotype
same,Flox neonates obtained (%),"[3]; 2STEP, Mecp2, neonates, Y-27632 added",4%
same,Left loxP (proportion inserted),"[3]; group Y → Y (temporary treatment in both steps), 2STEP, Mecp2-Flox",1/15
same,Left loxP (%),"[3]; group Y → Y, 2STEP, Mecp2-Flox",(6.7%)
same,Right loxP (%),"[3]; group Y → Y, 2STEP, Mecp2-Flox",(13.3%)
same,Right loxP (proportion inserted),"[3]; group Y → Y, 2STEP, Mecp2-Flox",2/15
same,"2loxP (%), Flox blastocysts","[3]; group Y → Y, 2STEP, Mecp2-Flox, blastocysts",7%
same,"2loxP (%), Flox blastocysts",[3]; [10],(6.7%)
same,"2loxP (proportion, Flox blastocysts)",[3]; [10],1/15
same,2loxP (%),[3]; [11],(0%)
same,"2loxP (proportion, both loxP inserted)",[3]; [11],0/17
same,Left loxP (%),[3]; [11],(5.9%)
same,Left loxP (proportion inserted),[3]; [11],1/17
same,Right loxP (%),[3]; [11],(5.9%)
same,Right loxP (proportion inserted),[3]; [11],1/17
same,inbred strains of Flox mice obtained by the 2STEP method,"[3]; two types of genes (Mecp2, Drb1)",obtained only from the experimental groups to which Y-27632 were added
same,ES cells established,[4],at a high rate
same,Flox individuals %,[5],16.7%
same,NUMBER OF FLOX INDIVIDUALS,[5],1/6
same,NUMBER OF NEWBORNS,"[6]; 25 TAKE embryos, 1 recipient",4
same,Number of KO individuals (large deletion),"[6]; 25 TAKE embryos, 1 recipient, 4 newborns analyzed",0
same,KO rate (Large deletion) (%),[6]; 25 TAKE embryos,(0%)
same,NUMBER OF NEWBORNS,"[6]; 75 TAKE embryos, 3 recipients",16
same,Number of KO individuals (large deletion),"[6]; 75 TAKE embryos, 3 recipients, 13 newborns analyzed",7
same,KO rate (Large deletion) (%),[6]; 75 TAKE embryos,(53.8%)
same,individuals mutated at Bbox1 Ex3 (chr. 2) (proportion),[7]; NOD-scid F0,#U: unknown mutation (4/9) (4/9)
same,individuals mutated at Il2rg (chr. X) Ex2 (proportion),[7]; NOD-scid F0,#U: unknown mutation (4/9) (4/9)
same,individuals mutated at Il2rg (chr. X) Ex3 (proportion),[7]; NOD-scid F0,#U: unknown mutation (4/9) (4/9)
same,individuals with mutations in one of the two genes (%),[7]; [12],66.7%
same,individuals with mutations in one of the two genes (proportion),[7]; [12],6 out of 9 and (6/9)
